Experimental data reported in patent US20070298099A1, “Liquid and Semi-Solid Pharmaceutical Formulations for Oral Administration of a Substituted Amide” (priority 2004, published 2007).

What was measured:
[1] = Aqueous solubility of Compound I; format: physicochemical
[2] = Oral bioavailability when dosed as a crystalline solid, dogs; format: in vivo; conditions: even when surfactant was included in the formulation
[3] = Oral bioavailability when dosed as a crystalline solid, monkeys; format: in vivo; conditions: even when surfactant was included in the formulation
[4] = Solubility of Compound I Polymorph B in various liquid vehicles (suspension equilibrated at least 24 hours, filtered, HPLC); format: physicochemical
Description: Solubility determinations were carried out at room temperature unless otherwise specified. Solubility of N-[1S,2S]-3-(4-chlorophenyl)-2-(3-cyanophenyl)-1-methylpropyl]-2-methyl-2-{[5-trifluoromethyl]pyridine-2-yl}oxy}propanamide (Compound I) as anhydrous unsolvated Polymorph B (such as prepared in Preparatory Example 2) was determined by preparing a suspension of anhydrous unsovated Polymorph B of Compound I in the solvent system. After equilibration for at least 24 hours, the suspension was filtered and the supernatant was analyzed by HPLC. Chromatography was performed on either a Vydac C18 300 A 250×4.6 mm 5 um particle size with in-line Phenomenex Security Guard w/ C18 cartridge or on a Polaris C18-Ether columns or on a Polaris C8-Ether columns using 0.1% phosphoric acid in combination with methanol or acetonitrile depending on HPLC conditions. The compound was detected at […] and assayed using standard curves. The results are presented below in Table 1, calculated based on mg/g vehicle.

C[C@H](NC(=O)C(C)(C)Oc1ccc(C(F)(F)F)cn1)[C@@H](Cc1ccc(Cl)cc1)c1cccc(C#N)c1 [Compound I, N-[1S,2S]-3-[(4-chlorophenyl)-2-(3-cyanophenyl)-1-methylpropyl]-2-methyl-2-{[(5-trifluoromethyl)pyridine-2-yl]oxy}propanamide]
solubility ([1]; aqueous medium (not further specified)): < 0.4 µg/mL
solubility ([1]; aqueous medium, typically): < 0.4 µg/mL
oral bioavailability [2]: very poorly orally bioavailable
oral bioavailability [3]: very poorly orally bioavailable
Solubility of Compound I, mg/g of vehicle ([4]; CAPRYOL PGMC, anhydrous unsolvated Polymorph B, room temperature): 396 mg/g of vehicle
Solubility of Compound I, mg/g of vehicle ([4]; CREMOPHOR-EL, Polymorph B, room temperature): 131 mg/g of vehicle
Solubility of Compound I, mg/g of vehicle ([4]; Corn oil-SPAN 80-CREMOPHOR EL (35:35:30), w/w/w, Polymorph B, room temperature): 69 mg/g of vehicle
Solubility of Compound I, mg/g of vehicle ([4]; Corn oil-SPAN 80-TWEEN 80 (30:30:40), w/w/w, Polymorph B, room temperature): 78 mg/g of vehicle
Solubility of Compound I, mg/g of vehicle ([4]; Corn oil/Oleic acid/TWEEN 80 (5:2:3), w/w/w, Polymorph B, room temperature): 57 mg/g of vehicle
Solubility of Compound I, mg/g of vehicle ([4]; Glycerol, Polymorph B, room temperature): 0.4 mg/g of vehicle
Solubility of Compound I, mg/g of vehicle ([4]; IMWITOR 742-MIGLYOL 812-TWEEN 80, (15:65:20) w/w/w, Polymorph B, room temperature): 140 mg/g of vehicle
Solubility of Compound I, mg/g of vehicle ([4]; IMWITOR 742-MIGLYOL 812-TWEEN 80, (30:50:20) w/w/w, Polymorph B, room temperature): 171 mg/g of vehicle
Solubility of Compound I, mg/g of vehicle ([4]; IMWITOR 742-MIGLYOL 812-TWEEN 80, (40:40:20) w/w/w, Polymorph B, room temperature): 187 mg/g of vehicle
Solubility of Compound I, mg/g of vehicle ([4]; IMWITOR 742-MIGLYOL 812-TWEEN 80,(45:45:10) w/w/w, Polymorph B, room temperature): ≧191 mg/g of vehicle
Solubility of Compound I, mg/g of vehicle ([4]; IMWITOR 742-Oleic Acid-TWEEN 80-MIGLYOL 812 (2:4:2:2), w/w/w/w, Polymorph B, room temperature): 140 mg/g of vehicle
Solubility of Compound I, mg/g of vehicle ([4]; IMWITOR 742-TWEEN 80 (50:50) w/w, Polymorph B, room temperature): 184 mg/g of vehicle
Solubility of Compound I, mg/g of vehicle ([4]; IMWITOR 742-TWEEN 80 (60:40), w/w, Polymorph B, room temperature): 209 mg/g of vehicle
Solubility of Compound I, mg/g of vehicle ([4]; IMWITOR 742-TWEEN 80, (70:30), w/w, Polymorph B, room temperature): 222 mg/g of vehicle
Solubility of Compound I, mg/g of vehicle ([4]; IMWITOR 742-TWEEN 80-Oleic Acid (4:2:4), w/w/w, Polymorph B, room temperature): 159 mg/g of vehicle
Solubility of Compound I, mg/g of vehicle ([4]; IMWITOR 742-TWEEN 80-Oleic Acid (5:3:2), w/w/w, Polymorph B, room temperature): 178 mg/g of vehicle
Solubility of Compound I, mg/g of vehicle ([4]; IMWITOR 742, at 30 C., anhydrous unsolvated Polymorph B): 267 (at 30 C.) mg/g of vehicle
Solubility of Compound I, mg/g of vehicle ([4]; LABRAFIL M1944CS, Polymorph B, room temperature): 84 mg/g of vehicle
Solubility of Compound I, mg/g of vehicle ([4]; LABRASOL, Polymorph B, room temperature): 202 mg/g of vehicle
Solubility of Compound I, mg/g of vehicle ([4]; MIGLYOL 812-Corn oil-SPAN 80-TWEEN 80 (30:20:25:25), w/w/w, Polymorph B, room temperature): 97 mg/g of vehicle
Solubility of Compound I, mg/g of vehicle ([4]; MIGLYOL 812-IMWITOR 742, 1:1 v/v, Polymorph B, room temperature): ≧204 mg/g of vehicle
Solubility of Compound I, mg/g of vehicle ([4]; MIGLYOL 812-IMWITOR 742, 4:1 v/v, Polymorph B, room temperature): 173 mg/g of vehicle
Solubility of Compound I, mg/g of vehicle ([4]; MIGLYOL 812-LABRASOL/TWEEN80/Oleic acid (40:25:25:10), w/w/w/w, Polymorph B, room temperature): 158 mg/g of vehicle
Solubility of Compound I, mg/g of vehicle ([4]; MIGLYOL 812-PECEOL, 1:1 v/v, Polymorph B, room temperature): 118 mg/g of vehicle
Solubility of Compound I, mg/g of vehicle ([4]; MIGLYOL 812-TWEEN 80, 1:1 w/w, Polymorph B, room temperature): 113 mg/g of vehicle
Solubility of Compound I, mg/g of vehicle ([4]; MIGLYOL 812/Oleic acid/CREMOPHOR EL (5:2:3), w/w/w/w, Polymorph B, room temperature): 129 mg/g of vehicle
Solubility of Compound I, mg/g of vehicle ([4]; MIGLYOL 812/Oleic acid/TWEEN 80 (5:2:3), w/w/w/w, Polymorph B, room temperature): 120 mg/g of vehicle
Solubility of Compound I, mg/g of vehicle ([4]; MIGLYOL 812, Polymorph B, room temperature): 94 mg/g of vehicle
Solubility of Compound I, mg/g of vehicle ([4]; Oleic Acid, Polymorph B, room temperature): 20 mg/g of vehicle
Solubility of Compound I, mg/g of vehicle ([4]; Olive oil, Polymorph B, room temperature): 18 mg/g of vehicle
Solubility of Compound I, mg/g of vehicle ([4]; PEG400-TWEEN80 (1:1), w/w, Polymorph B, room temperature): 138 mg/g of vehicle
Solubility of Compound I, mg/g of vehicle ([4]; PEG400, Polymorph B, room temperature): 120 mg/g of vehicle
Solubility of Compound I, mg/g of vehicle ([4]; PG, Polymorph B, room temperature): 28 mg/g of vehicle
Solubility of Compound I, mg/g of vehicle ([4]; SPAN 80, Polymorph B, room temperature): 45 mg/g of vehicle
Solubility of Compound I, mg/g of vehicle ([4]; Soybean Oil, Polymorph B, room temperature): 21 mg/g of vehicle
Solubility of Compound I, mg/g of vehicle ([4]; Soybean oil-SPAN 80-TWEEN 80 (50:25:25), w/w/w, Polymorph B, room temperature): 59 mg/g of vehicle
Solubility of Compound I, mg/g of vehicle ([4]; TWEEN 80-LABRASOL-Oleic Acid (25:25:50), w/w/w, Polymorph B, room temperature): 120 mg/g of vehicle
Solubility of Compound I, mg/g of vehicle ([4]; TWEEN 80, Polymorph B, room temperature): 104 mg/g of vehicle
